Test results: PMC7252906 (Toxicology and applied pharmacology, 2019)
Where “and” joins values, the source holds several entries; their conditions need not be identical. Equal entries are not always repeated. Where two headings read alike, the source gives them in different places.

What was measured:
[1] = Effect of DMAE on serum choline levels and conversion of DMAE to choline; type: in vivo, Wistar Han rats; settings: male rats, gavage 500 mg/kg [^14C]DMAE, 1 h post-dose (remained up to 12 h); pre-dose approximately 17 ng/mL
[2] = Radiochemical HPLC profiling of urine after [^14C]DMAE; type: in vivo, Harlan Sprague Dawley rats
[3] = Incorporation of [^14C]DMAE-derived radioactivity in tissue lipids; type: in vivo, Wistar Han rats; settings: gavage 100 mg/kg, 2 h; for Radioactivity in tissue lipids (% dose administered) / Total radioactivity in tissue lipids: male rats
[4] = male Wistar Han rats, gavage 100 mg/kg, 24 h
[5] = male Wistar Han rats, gavage 500 mg/kg, 24 h
[6] = male Wistar Han rats, gavage 500 mg/kg, 72 h

CN(C)CCO [DMAE, Dimethylaminoethanol]
% Dose Recovered, Urine (male Wistar Han rats, gavage 10 mg/kg, 24 h, listed as [^14C]DMAE, 10 mg/kg): 57.0 ± 4.10 % dose | % Dose Recovered, CO2 [4]: 4.84 ± 0.700 % dose | % Dose Recovered, Feces [4]: 0.302 ± 0.061 % dose | % Dose Recovered, Tissues and GI Tract (includes contents) [4]: 30.1 ± 3.80 % dose | % Dose Recovered, Total Recovered [4]: 93.9 ± 2.90 % dose | percent radioactivity remaining in all tissues, excluding GI tract [4]: ~25% | % Dose Recovered, Urine (male Wistar Han rats, gavage 100 mg/kg, 24 h, listed as [^14C]DMAE, 100 mg/kg): 59 % dose and 58.6 ± 5.10 % dose | % Dose Recovered, CO2 [5]: 4.78 ± 0.810 % dose | % Dose Recovered, Feces [5]: 0.518 ± 0.472 % dose | % Dose Recovered, Tissues and GI Tract (includes contents) [5]: 24.3 ± 2.10 % dose | % Dose Recovered, Total Recovered [5]: 92.1 ± 1.90 % dose | % Dose Recovered, VOCs [5]: 0.198 ± 0.038 % dose | percent radioactivity remaining in all tissues, excluding GI tract [5]: ~21% | % Dose Recovered, Urine (male Wistar Han rats, gavage 500 mg/kg, 24 h, listed as [^14C]DMAE, 500 mg/kg): 62 % dose and 62.1 ± 1.50 % dose | % Dose Recovered, Feces [6]: 1.11 ± 1.01 % dose | % Dose Recovered, Tissues and GI Tract (includes contents) [6]: 14.5 ± 1.20 % dose | % Dose Recovered, Total Recovered [6]: 92.0 ± 2.20 % dose | % Dose Recovered, Urine [6]: 68.6 ± 2.00 % dose | administered dose found as expired CO2 (male Wistar Han rats, gavage, all dose levels (10, 100, 500 mg/kg), 24 h): 4–5% | total administered dose recovered (male and female Wistar Han rats, oral administration, range over groups): 92–98% | excretion in urine (rats, gavage, range over groups): 57–64% | excreted as exhaled CO2 (rats, range over groups): ≤ 6% | mean serum choline level [1]: ~23 ng/mL | Estimated percentage of area of DMAE peak in urine chromatogram ([2]; Rat/Female, [^14C]DMAE 500 mg/kg, Oral): 55% | Estimated percentage of area of DMAE peak in urine chromatogram ([2]; Rat/Male, [^14C]DMAE 10 mg/kg, IV): 3% | Estimated percentage of area of DMAE peak in urine chromatogram ([2]; Rat/Male, [^14C]DMAE 10 mg/kg, Oral): 95% | Estimated percentage of area of DMAE peak in urine chromatogram ([2]; Rat/Male, [^14C]DMAE 100 mg/kg, Oral): 56% | Estimated percentage of area of DMAE peak in urine chromatogram ([2]; Rat/Male, [^14C]DMAE 500 mg/kg, Oral): 34% | highest level of radioactivity incorporated into lipids in any tissues ([3]; male Wistar Han rats): ~ 1 % of the administered dose | Radioactivity in tissue lipids (% dose administered) ([3]; Brain, Fatty Acids): 0.020 % dose | Total radioactivity in tissue lipids ([3]; Brain, Fatty Acids): 34 | Radioactivity in tissue lipids (% dose administered) ([3]; Brain, Neutral Lipids): 0.075 % dose | Total radioactivity in tissue lipids ([3]; Brain, Neutral Lipids): 107 | Radioactivity in tissue lipids (% dose administered) ([3]; Brain, Phospholipids): 0.097 % dose | Total radioactivity in tissue lipids ([3]; Brain, Phospholipids): 167 | Radioactivity in tissue lipids (% dose administered) ([3]; Heart, Fatty Acids): 0.010 % dose | Total radioactivity in tissue lipids ([3]; Heart, Fatty Acids): 17 | Radioactivity in tissue lipids (% dose administered) ([3]; Heart, Neutral Lipids): 0.028 % dose | Total radioactivity in tissue lipids ([3]; Heart, Neutral Lipids): 40 | Radioactivity in tissue lipids (% dose administered) ([3]; Heart, Phospholipids): 0.188 % dose | Total radioactivity in tissue lipids ([3]; Heart, Phospholipids): 323 | Radioactivity in tissue lipids (% dose administered) ([3]; Kidney, Fatty Acids): 0.047 % dose | Total radioactivity in tissue lipids ([3]; Kidney, Fatty Acids): 81 | Radioactivity in tissue lipids (% dose administered) ([3]; Kidney, Neutral Lipids): 0.029 % dose | Total radioactivity in tissue lipids ([3]; Kidney, Neutral Lipids): 41 | Radioactivity in tissue lipids (% dose administered) ([3]; Kidney, Phospholipids): 0.771 % dose | Total radioactivity in tissue lipids ([3]; Kidney, Phospholipids): 1322 | Radioactivity in tissue lipids (% dose administered) ([3]; Liver, Phospholipids): 1.117 % dose | Total radioactivity in tissue lipids ([3]; Liver, Phospholipids): 1915 | Radioactivity in tissue lipids (% dose administered) ([3]; Lung, Fatty Acids): 0.074 % dose | Total radioactivity in tissue lipids ([3]; Lung, Fatty Acids): 127 | Radioactivity in tissue lipids (% dose administered) ([3]; Lung, Neutral Lipids): 0.276 % dose | Total radioactivity in tissue lipids ([3]; Lung, Neutral Lipids): 395 | Radioactivity in tissue lipids (% dose administered) ([3]; Lung, Phospholipids): 0.926 % dose | Total radioactivity in tissue lipids ([3]; Lung, Phospholipids): 1587 | Radioactivity in tissue lipids (% dose administered) ([3]; Skin, Fatty Acids): 0.007 % dose | Total radioactivity in tissue lipids ([3]; Skin, Fatty Acids): 12 | Radioactivity in tissue lipids (% dose administered) ([3]; Skin, Neutral Lipids): 0.003 % dose | Total radioactivity in tissue lipids ([3]; Skin, Neutral Lipids): 4 | Radioactivity in tissue lipids (% dose administered) ([3]; Skin, Phospholipids): 0.251 % dose | Total radioactivity in tissue lipids ([3]; Skin, Phospholipids): 430 | Radioactivity in tissue lipids (% dose administered) ([3]; Spleen, Fatty Acids): 0.004 % dose | Total radioactivity in tissue lipids ([3]; Spleen, Fatty Acids): 7 | Radioactivity in tissue lipids (% dose administered) ([3]; Spleen, Neutral Lipids): 0.004 % dose | Total radioactivity in tissue lipids ([3]; Spleen, Neutral Lipids): 7 | Radioactivity in tissue lipids (% dose administered) ([3]; Spleen, Phospholipids): 0.055 % dose | Total radioactivity in tissue lipids ([3]; Spleen, Phospholipids): 95 | Radioactivity in tissue lipids (% dose administered) ([3]; Testes, Fatty Acids): 0.013 % dose | Total radioactivity in tissue lipids ([3]; Testes, Fatty Acids): 23 | Radioactivity in tissue lipids (% dose administered) ([3]; Testes, Neutral Lipids): 0.008 % dose | Total radioactivity in tissue lipids ([3]; Testes, Neutral Lipids): 11 | Radioactivity in tissue lipids (% dose administered) ([3]; Testes, Phospholipids): 0.097 % dose | Total radioactivity in tissue lipids ([3]; Testes, Phospholipids): 167
